Measured values reported in patent US20260109732A1, “LIPID AMINES” (ModernaTX, Inc., priority 2021, published 2026).
Where a name gives a salt, the structure may show the parent alone.

Legend:
[1] = Diameter and PDI from DLS measurements of mRNA nanoparticles with lipid amines; assay type: physicochemical
Outline: (§1)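 Ionizable lipid nanoparticles (IL1:DSPC:cholesterol:PEG-DMG-2K) formed by vortex mixing at pH 4, loaded with luciferase or CFTR mRNA at N:P 4.93, neutralized with TRIS pH 8.12, then modified with lipid amine SA50 at pH 7.5. Particle diameter and PDI read by DLS; mRNA encapsulation by Ribogreen assay.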

HeLa cells [2] = experiment: Luciferase Protein Expression Assay in HeLa Cells; assay type: cell-based, Human; details: LNPs encapsulating Luciferase mRNA, 25 ng per well, N=4 wells; 5 h serum-free then 24 h; ONE-Glo
Outline: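 HeLa cells received LNPs carrying luciferase mRNA (25 ng per well) or PBS in serum-free MEM for 5 h, then complete MEM for a further 24 h. Luciferase then read by ONE-Glo luminescence after lysis and reported as average RLU of 4 replicate wells.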

HeLa cells [3] = experiment: CFTR Protein Expression Assay in HeLa Cells; assay type: cell-based, Human; details: LNPs encapsulating CFTR mRNA, N=4 wells; 5 h serum-free then 24 h; immunofluorescence vs PBS control
Outline: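 HeLa cells dosed with CFTR mRNA LNPs (70 mM NaCl final buffer matrix) in serum-free MEM for 5 h, then complete MEM for 24 h. Fixed cells immunostained with anti-CFTR monoclonal and Alexa 488 secondary, imaged confocally; CFTR intensity per cell expressed as fold-change versus PBS buffer control, N=4 wells.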

[4] = Encapsulation of mRNA nanoparticles with lipid amines using Ribogreen assay; assay type: physicochemical
Outline: as §1

[5] = CFTR mRNA nanoparticle with lipid amine
[6] = Luciferase mRNA nanoparticle modified with lipid amine

SMILES | Diameter (nm) [1, 5] | PDI [1, 5] | Diameter (nm) [1, 6] | PDI [1, 6] | Average Relative Light Units ± Standard Deviation (HeLa cells [2]) | Average fold-change in CFTR signal intensity per cell compared to buffer control ± standard deviation (HeLa cells [3]) | % Encapsulation (Ribogreen) [4, 5] | % Encapsulation (Ribogreen) [4, 6]
CC(C)CCC[C@@H](C)[C@H]1CC[C@H]2[C@@H]3CC=C4C[C@@H](OC(=O)N(CCCCNCC(F)CN)CC(F)CN)CC[C@]4(C)[C@H]3CC[C@]12C (stereo partly drawn) [SA87, (3S,8S,9S,10R,13R,14S,17R)-10,13-dimethyl-17-((R)-6-methylheptan-2-yl)-2,3,4,7,8,9,10,11,12,13,14,15,16,17-tetradecahydro-1H-cyclopenta[a]phenanthren-3-yl (3-amino-2-fluoropropyl)(4-((3-amino-2-fluoropropyl)amino)butyl)carbamate trihydrochloride] | 81.2 nm | 0.1 | 75 nm | 0.18 | 13346.1 ± 2590.8 Relative Light Units | 3.2 ± 0.1 fold-change | 99.5% | 98.2%
CC(C)CCC[C@@H](C)[C@H]1CC[C@H]2[C@@H]3CC=C4C[C@@H](OC(=O)CC(=O)N(CCCN)CCCCNCCCN)CC[C@]4(C)[C@H]3CC[C@]12C.Cl.Cl.Cl [SA59, (3S,8S,9S,10R,13R,14S,17R)-10,13-Dimethyl-17-((R)-6-methylheptan-2-yl)-2,3,4,7,8,9,10,11,12,13,14,15,16,17-tetradecahydro-1H-cyclopenta[a]phenanthren-3-yl 3-((3-aminopropyl)(4-((3-aminopropyl)amino)butyl)amino)-3-oxopropanoate trihydrochloride] | 76.9 nm | 0.15 | 74 nm | 0.15 | 17590.1 ± 6267.4 Relative Light Units | 5.6 ± 0.5 fold-change | 99.6% | 99.7%
CC[C@H](CC[C@@H](C)[C@H]1CC[C@H]2[C@@H]3CC=C4C[C@@H](OC(=O)CN(CCCN)CCCCNCCCN)CC[C@]4(C)[C@H]3CC[C@]12C)C(C)C [SA119, (3S,8S,9S,10R,13R,14S,17R)-17-((2R,5R)-5-ethyl-6-methylheptan-2-yl)-10,13-dimethyl-2,3,4,7,8,9,10,11,12,13,14,15,16,17-tetradecahydro-1H-cyclopenta[a]phenanthren-3-yl N-(3-aminopropyl)-N-(4-((3-aminopropyl)amino)butyl)glycinate tetrahydrochloride] | 88.3 nm | 0.15 | 78 nm | 0.18 | 18979.6 ± 7864.8 Relative Light Units | 5.7 ± 1.0 fold-change | 98.9% | 99.4%
CC(C)CCC[C@@H](C)[C@H]1CC[C@H]2[C@@H]3CC=C4C[C@@H](OC(=O)N(CCCCNCCC5(N)CC5)CCC5(N)CC5)CC[C@]4(C)[C@H]3CC[C@]12C [SA124, (3S,8S,9S,10R,13R,14S,17R)-10,13-dimethyl-17-((R)-6-methylheptan-2-yl)-2,3,4,7,8,9,10,11,12,13,14,15,16,17-tetradecahydro-1H-cyclopenta[a]phenanthren-3-yl (2-(1-aminocyclopropyl)ethyl)(4-((2-(1-aminocyclopropyl)ethyl)amino)butyl)carbamate trihydrochloride] | 72.0 nm | 0.10 | 74 nm | 0.14 | 45805.9 ± 5630.6 Relative Light Units | 15.0 ± 1.2 fold-change | 98.3% | 99.8%
CC[C@H](CC[C@@H](C)[C@H]1CC[C@H]2[C@@H]3CC=C4C[C@@H](OC(=O)N(CCCN)CCCCN)CC[C@]4(C)[C@H]3CC[C@]12C)C(C)C [SA120, (3S,8S,9S,10R,13R,14S,17R)-17-((2R,5R)-5-Ethyl-6-methylheptan-2-yl)-10,13-dimethyl-2,3,4,7,8,9,10,11,12,13,14,15,16,17-tetradecahydro-1H-cyclopenta[a]phenanthren-3-yl (4-aminobutyl)(3-aminopropyl)carbamate dihydrochloride] | 83.6 nm | 0.14 | 76 nm | 0.28 | 34695.5 ± 9492.2 Relative Light Units | 16.8 ± 1.1 fold-change | 97.5% | 99.1%
CC[C@H](CC[C@@H](C)[C@H]1CC[C@H]2[C@@H]3CC=C4C[C@@H](OC(=O)N(CCCCCCCC(C)(C)N)CCC(C)(C)N)CC[C@]4(C)[C@H]3CC[C@]12C)C(C)C [SA153, (3S,8S,9S,10R,13R,14S,17R)-17-((2R,5R)-5-ethyl-6-methylheptan-2-yl)-10,13-dimethyl-2,3,4,7,8,9,10,11,12,13,14,15,16,17-tetradecahydro-1H-cyclopenta[a]phenanthren-3-yl (3-amino-3-methylbutyl)(8-amino-8-methylnonyl)carbamate dihydrochloride] | 69.3 nm | 0.12 | 72 nm | 0.15 | 35859.3 ± 5894.9 Relative Light Units | 17.5 ± 1.4 fold-change | 98.5% | 95.8%
CC[C@H](CC[C@@H](C)[C@H]1CC[C@H]2[C@@H]3CC=C4C[C@@H](OC(=O)CCCC(=O)N(CCCCCCCC(C)N)CCC(C)N)CC[C@]4(C)[C@H]3CC[C@]12C)C(C)C (stereo partly drawn) [SA154, (3S,8S,9S,10R,13R,14S,17R)-17-((2R,5R)-5-ethyl-6-methylheptan-2-yl)-10,13-dimethyl-2,3,4,7,8,9,10,11,12,13,14,15,16,17-tetradecahydro-1H-cyclopenta[a]phenanthren-3-yl 5-((3-aminobutyl)(8-aminononyl)amino)-5-oxopentanoate dihydrochloride] | 72.8 nm | 0.13 | 73 nm | 0.18 | 28128.6 ± 4655.3 Relative Light Units | 16.7 ± 0.8 fold-change | 99.1% | 99.6%
CC(C)CCC[C@@H](C)[C@H]1CC[C@H]2[C@@H]3CC=C4C[C@@H](OC(=O)CCCC(=O)N(CCCCCCCC(C)(C)N)CCC(C)(C)N)CC[C@]4(C)[C@H]3CC[C@]12C.Cl.Cl [SA141, (3S,8S,9S,10R,13R,14S,17R)-10,13-dimethyl-17-((R)-6-methylheptan-2-yl)-2,3,4,7,8,9,10,11,12,13,14,15,16,17-tetradecahydro-1H-cyclopenta[a]phenanthren-3-yl 5-((3-amino-3-methylbutyl)(8-amino-8-methylnonyl)amino)-5-oxopentanoate dihydrochloride] | 70.8 nm | 0.12 | 73 nm | 0.15 | 35801.9 ± 8884.3 Relative Light Units | 14.9 ± 0.6 fold-change | 98.9% | 98.9%
CC(C)CCC[C@@H](C)[C@H]1CC[C@H]2[C@@H]3CC=C4C[C@@H](SSCCC(=O)N(CCCN)CCCCCCCCN)CC[C@]4(C)[C@H]3CC[C@]12C [SA97, N-(8-Aminooctyl)-N-(3-aminopropyl)-3-(((3S,8S,9S,10R,13R,14S,17R)-10,13-dimethyl-17-((R)-6-methylheptan-2-yl)-2,3,4,7,8,9,10,11,12,13,14,15,16,17-tetradecahydro-1H-cyclopenta[a]phenanthren-3-yl)disulfaneyl)propanamide dihydrochloride] | 83.2 nm | 0.12 | 72 nm | 0.16 | 13144.4 ± 4350.5 Relative Light Units | 5.3 ± 1.0 fold-change | 98.4% | 98.8%
